Measurements reported in US20250127905A1, “GLUTARIMIDE COMPOUND AND USE THEREOF” (MEDSHINE DISCOVERY INC., priority 2021, published 2025).
Counter-ions that a name gives are not always drawn.

Tests used:
[1] = Pharmacokinetic evaluation in cynomolgus monkeys; format: in vivo
Source text: In this study, male cynomolgus monkeys were selected as test animals, and LC/MS/MS method was used to quantify plasma concentrations of the test compound intravenously injected or intragastrically administered to cynomolgus monkeys at different time points, so as to evaluate the pharmacokinetic profile of the test drug in cynomolgus monkeys.
Cynomolgus monkeys (male, 2 to 5 kg, Hainan Jingang Biotech Co., Ltd.).
A clarified solution of the test compound was slowly injected into cynomolgus monkeys (feeding) via the peripheral vein (vehicle: 5% DMSO/10% Solutol/85% H2O), or intragastrically administered into cynomolgus monkeys (feeding). For intravenous injection, 0.5 mL of blood was collected from the peripheral vein at 0 h (pre-administration) and 0.083 h, 0.25 h, 0.5 h, 1 h, 2 h, 4 h, 6 h, 8 h, and 24 h after administration, placed in an anticoagulant tube added with EDTA-2K, and centrifuged at 3200 g for 10 minutes at 2 to 8° C. to separate the supernatant. For oral administration, 0.5 mL of blood was collected from the peripheral vein at 0 h (pre-administration) and 0.083 h, 0.25 h, 0.5 h, 1 h, 2 h, 4 h, 6 h, 8 h, and 24 h after administration, placed in an anticoagulant tube added with EDTA-2K, and centrifuged at 3200 g for 10 minutes at 2 to 8° C. to separate the supernatant. Plasma concentrations were determined by LC-MS/MS method, and relevant pharmacokinetic parameters were calculated using Phoenix WinNonlin 6.3 pharmacokinetic software with non-compartmental model linear-log trapezoidal method.

[2] = tested on: sodium urate-induced acute gouty arthritis; experiment: Sodium urate-induced acute gouty arthritis in rats; format: in vivo, SD rats
Description: It is to evaluate the preventive and therapeutic effect of compounds on sodium urate-induced acute gouty arthritis in rats. Animals: 5-week-old male SD rats; source: Zhejiang Vital River Laboratory Animal Technology Co., Ltd. Experimental grouping: After 3 days of acclimatization, all animals were measured for basal hindfoot volume, arthritis index score, and bilateral hindfoot pain threshold. 50 animals were selected and divided equally into 5 groups with 10 animals each based on body weight, hindfoot volume, arthritis index, and bilateral hindfoot pain threshold. The day of initiation of administration was recorded as D-1, and intragastric administration was performed twice a day for 6 consecutive days (D-1 to […]). 1 hour after the first administration at D0 (1 day after administration), except for the blank control group, the other rats were anesthetized with isoflurane, and 50 μL (50 mg/mL) of sodium urate solution was injected into the joint cavity for modeling at the lateral posterior side of the right ankle joint, which was used as a puncture point. Joint swelling would peak after 8 to 12 hours (lasting about 72 hours). Foot volumes of the animals were measured and arthritis index (AI) scoring was performed before and 2, 5, 8, 11, 24, 48, 72, and 96 hours after the onset of inflammation; pain thresholds were measured using a bipedal balance pain tester before and 2, 24, 48, 72, and 96 hours after the onset of inflammation. Photographs of critical swelling were taken at the peak of joint swelling (8 to 12 hours) in each group of animals and retained. Foot volume measurement: Before measurement, a line was drawn at the ankle joint of a rat with a marker to mark the position, and the instrument was added with clean water and zeroed to be ready for measurement. The hind limbs of the rat were placed in the water so that the marked line at the ankle joint was on the surface of the liquid, at which time the foot pedal was pressed to read the foot volume of the rat. At the end of the measurement, the foot pedal was pressed again for zeroing to be ready for the measurement of the next rat. Arthritis index (AI): The foot volume was measured while the swelling of the modeled foot was scored. Arthritis index scoring criteria: [table] Experimental data were expressed as Mean±SD; data were statistically analyzed using IBM SPSS Statistics 21, and p<0.05 was considered a significant difference between the two groups.

[3] = Intragastric administration (5 mg/kg)
[4] = 30 mg/kg intragastric twice a day, time 0 h
[5] = 30 mg/kg intragastric twice a day, time 2 h
[6] = 30 mg/kg intragastric twice a day, time 5 h
[7] = 30 mg/kg intragastric twice a day, time 8 h
[8] = 30 mg/kg intragastric twice a day, time 11 h
[9] = 30 mg/kg intragastric twice a day, time 24 h
[10] = 30 mg/kg intragastric twice a day, time 48 h
[11] = 30 mg/kg intragastric twice a day, time 72 h
[12] = 30 mg/kg intragastric twice a day, time 96 h
[13] = 100 mg/kg intragastric twice a day, time 0 h
[14] = 100 mg/kg intragastric twice a day, time 2 h
[15] = 100 mg/kg intragastric twice a day, time 5 h
[16] = 100 mg/kg intragastric twice a day, time 8 h
[17] = 100 mg/kg intragastric twice a day, time 11 h
[18] = 100 mg/kg intragastric twice a day, time 24 h
[19] = 100 mg/kg intragastric twice a day, time 48 h
[20] = 100 mg/kg intragastric twice a day, time 72 h
[21] = 100 mg/kg intragastric twice a day, time 96 h
[22] = 200 mg/kg intragastric twice a day, time 0 h
[23] = 200 mg/kg intragastric twice a day, time 2 h
[24] = 200 mg/kg intragastric twice a day, time 5 h
[25] = 200 mg/kg intragastric twice a day, time 8 h
[26] = 200 mg/kg intragastric twice a day, time 11 h
[27] = 200 mg/kg intragastric twice a day, time 24 h
[28] = 200 mg/kg intragastric twice a day, time 48 h
[29] = 200 mg/kg intragastric twice a day, time 72 h
[30] = 200 mg/kg intragastric twice a day, time 96 h

- Area under the drug-time curve (0-inf) [1, 3]: 1.14 µM·h
- Peak concentration [1, 3]: 0.14 µM
- Time to peak concentration [1, 3]: 4.0 h
- Area under the drug-time curve (0-inf) ([1]; Intravenous injection (0.5 mg/kg)): 0.21 µM·h
- clearance ([1]; male, cynomolgus monkey, plasma, Intravenous injection (0.5 mg/kg)): 48.5 mL/min/kg
- Vd ([1]; male, cynomolgus monkey, plasma, Intravenous injection (0.5 mg/kg), read-out: Apparent volume of distribution): 8.83 L/kg
- half-life ([1]; male, cynomolgus monkey, plasma, Intravenous injection (0.5 mg/kg), read-out: Elimination half-life (converted)): 2.33 h
- bioavailability ([1]; male, cynomolgus monkey, plasma, oral, IV 0.5 mg/kg, intragastric 5 mg/kg, read-out: Bioavailability F): 55.5%
Compound: O=C1CCC(c2noc3c(NC(=O)CN4CCN(C[C@H]5CC[C@H](n6cc(NC(=O)c7cnn8ccc(N9C[C@H]%10C[C@@H]9CO%10)nc78)c(C(F)F)n6)CC5)CC4)cccc23)C(=O)N1 (some centres unmarked) [Hydrochloride of WX015]
- Arthritis index [2, 4]: 0
- Foot volume [2, 4]: 3.63 mL
- Hindfoot weight-bearing difference [2, 4]: 0.69 g
- Arthritis index [2, 5]: 1
- Foot volume [2, 5]: 3.88 mL
- Hindfoot weight-bearing difference [2, 5]: 19.09 g
- Arthritis index [2, 6]: 1
- Foot volume [2, 6]: 3.9 mL
- Arthritis index [2, 7]: 1
- Foot volume [2, 7]: 3.9 mL
- Arthritis index [2, 8]: 1
- Foot volume [2, 8]: 3.92 mL
- Arthritis index [2, 9]: 0.9
- Foot volume [2, 9]: 3.9 mL
- Hindfoot weight-bearing difference [2, 9]: 13.22 g
- Arthritis index [2, 10]: 0.5
- Foot volume [2, 10]: 3.91 mL
- Hindfoot weight-bearing difference [2, 10]: 6.6 g
- Arthritis index [2, 11]: 0.3
- Foot volume [2, 11]: 3.94 mL
- Hindfoot weight-bearing difference [2, 11]: 4.3 g
- Arthritis index [2, 12]: 0.1
- Foot volume [2, 12]: 3.96 mL
- Hindfoot weight-bearing difference [2, 12]: 2.1 g
- Arthritis index [2, 13]: 0
- Foot volume [2, 13]: 3.63 mL
- Hindfoot weight-bearing difference [2, 13]: 0.12 g
- Arthritis index [2, 14]: 1
- Foot volume [2, 14]: 3.85 mL
- Hindfoot weight-bearing difference [2, 14]: 16.38 g
- Arthritis index [2, 15]: 1
- Foot volume [2, 15]: 3.88 mL
- Arthritis index [2, 16]: 1
- Foot volume [2, 16]: 3.9 mL
- Arthritis index [2, 17]: 1
- Foot volume [2, 17]: 3.91 mL
- Arthritis index [2, 18]: 0.6
- Foot volume [2, 18]: 3.88 mL
- Hindfoot weight-bearing difference [2, 18]: 12.2 g
- Arthritis index [2, 19]: 0.3
- Foot volume [2, 19]: 3.9 mL
- Hindfoot weight-bearing difference [2, 19]: 5.72 g
- Arthritis index [2, 20]: 0.2
- Foot volume [2, 20]: 3.93 mL
- Hindfoot weight-bearing difference [2, 20]: 3 g
- Arthritis index [2, 21]: 0
- Foot volume [2, 21]: 3.95 mL
- Hindfoot weight-bearing difference [2, 21]: 2.01 g
- Arthritis index [2, 22]: 0
- Foot volume [2, 22]: 3.62 mL
- Hindfoot weight-bearing difference [2, 22]: -0.23 g
- Arthritis index [2, 23]: 1
- Foot volume [2, 23]: 3.84 mL
- Hindfoot weight-bearing difference [2, 23]: 14.81 g
- Arthritis index [2, 24]: 1
- Foot volume [2, 24]: 3.88 mL
- Arthritis index [2, 25]: 1
- Foot volume [2, 25]: 3.89 mL
- Arthritis index [2, 26]: 1
- Foot volume [2, 26]: 3.88 mL
- Arthritis index [2, 27]: 0.5
- Foot volume [2, 27]: 3.87 mL
- Hindfoot weight-bearing difference [2, 27]: 11.32 g
- Arthritis index [2, 28]: 0.2
- Foot volume [2, 28]: 3.89 mL
- Hindfoot weight-bearing difference [2, 28]: 3.91 g
- Arthritis index [2, 29]: 0
- Foot volume [2, 29]: 3.91 mL
- Hindfoot weight-bearing difference [2, 29]: 2.1 g
- Arthritis index [2, 30]: 0
- Foot volume [2, 30]: 3.93 mL
- Hindfoot weight-bearing difference [2, 30]: 1.94 g
